One assay deals with mTOR (Mus musculus, UniProt P26883+Q9JLN9). The settings on record: model not stated; cited from earlier work.
The next assay has as its system Inpp5e^Δ/Δ mice. Briefly: Oral MK2206 treatment of Inpp5e^Δ/Δ mice. The class given is in vivo, mouse. How it is done: (§1) MK2206 treatment of Inpp5e^Δ/+ and Inpp5e^Δ/Δ mice commenced at P9 and were performed daily up to P14 before sacrifice at P15.MK2206 treatment of Pkd1 litters commenced at P4 and were performed daily up to P10 before sacrifice at P11. MK2206 was delivered orally by pipette in a solution of 27 mg/ml MK2206.2HCI (S1078, Selleck Chemicals) in 30% Capsitol (Cydex) and 5% glucose (49163-100ML, Sigma-Aldrich). Mice were dosed with a volume to deliver MK2206 up to 75 mg/kg as indicated. Mouse body weights were recorded daily. Solutions were stored at 4 degrees for up to 2 weeks. Mice were culled via cervical dislocation or decapitation, as most appropriate for their age following ethical guidelines. Procedures were all conducted by ethically approved and trained personnel. Mice were measured for body weight, with ear tissue, urine and kidneys collected. Ear tissue and urine was stored at -20 degrees. Newborn and P4 kidneys were fixed whole in 4% PFA for 16 hrs at 4 degrees, while the kidney capsule membrane was removed from older mouse kidneys, with the kidney cut into halves and fixed in 10% NBF for 16 hrs at room temperature. Half the kidney samples were sent for histological processing and the other half were snap frozen and stored at -80 degrees until processed for RNA, alpha analysis and/or western blotting. Kidney tissues were paraffin imbedded and sectioned at 4 μm for most analysis with the exception of being sectioned at 10 μm for cilia analysis. Antigen retrieval was performed in Citrate buffer pH6 using Tefal pressure cooker or using a DAKO […] system as indicated. Antibody staining was performed as described elsewhere (Cottle et al., (2013) Cell reports, 3: 427-441), except triton x-100 was included in blocking buffers, and cover slips mounted using Prolong Gold (Invitrogen). Antibodies and stains are listed below. Imaging was using an Aperio brightfield and fluorescent scanners (MHP), Olympus Fluoview 500 (Biochemistry Imaging Suite), Nikon C2 or Leica SP8 confocal microscope (MMI). All quantifications with the exception of Nanostring analysis and Chi squared tests for analysis of mendelian ratios, were analyzed using the unpaired Student's t-test assuming unequal variance in Microsoft Excel and P≤0.05 values were considered significant. One or two tailed tests were selected as appropriate for hypothesis. Values presented are Mean±Standard Error of the Mean (S.E.M). 2K/BW % was calculated as the combined kidney weight over total body weight percentage. Albumin Creatinine Ratios (ACR) were calculated as μg Albumin over mg of Creatinine. Cyst identity was measured as a proportion of cyst epithelial area for each marker out of total sum of cyst epithelial areas of all markers (adjusted for marker co-localisation). Cystic index % is calculated as the proportion of cystic space occupied out of total kidney area in DBA-stained kidney longitudinal cross-sections. Cyst number reflects the average number of cysts counted per DBA-stained longitudinal kidney cross section. Cyst size is the average cross-sectional cyst size (mm^2) of cysts sampled from DBA-stained kidney longitudinal cross sections. Due to escape of Cre activity at the Aurka locus in cysts, unless otherwise indicated references to Inpp5e^Δ/Δ; Aurka^Δ/Δ immunostains and their quantifications reflect non-cystic regions throughout this study.

For another assay, the system named is Pkd1^Δ/Δ mice. Briefly: Oral MK2206 treatment of Pkd1^Δ/Δ mice (ADPKD model). In kind it is in vivo, mouse. The protocol:
as §1

[1] abbreviates: oral, daily from P9, sacrificed at P15, vs vehicle.
[2] abbreviates: daily P4 to P10, P11, dose dependent, up to 75 mg/kg.

This is an account of results in patent US20220372491A1, “TREATMENT OF RENAL CYSTIC DISEASE” (MONASH UNIVERSITY, priority 2019, published 2022).

As to `CO[C@H]1C[C@@H]2CC[C@@H](C)[C@@](O)(O2)C(=O)C(=O)N2CCCC[C@H]2C(=O)O[C@H]([C@H](C)C[C@@H]2CC[C@@H](OCCO)[C@H](OC)C2)CC(=O)[C@H](C)/C=C(\C)[C@@H](O)[C@@H](OC)C(=O)[C@H](C)C[C@H](C)/C=C/C=C/C=C/1C` [Everolimus], at mTOR, the cyst number result is “not number” and the cyst size entry was “reduction in cyst size”.

On to `NC1(c2ccc(-c3nc4ccn5c(=O)[nH]nc5c4cc3-c3ccccc3)cc2)CCC1` [MK2206], for which the “% AKT pS473 high collecting duct cells” value in the assay with Inpp5e^Δ/Δ mice (cystic Inpp5e^Δ/Δ and control mice, Vehicle or MK2206) is listed as “reduces AKT pS473 detection”. Moreover, in the assay on Inpp5e^Δ/Δ mice (setting [1]), the “acquisition of cysts (average cyst number per section)” value is “slowed the acquisition of cysts”, the ciliation entry is reported as “increased ciliation”, the cyst size entry is recorded as “reduced cyst size” and the cystic index entry is given as “reduced the cystic index”. Moreover, in the assay with Inpp5e^Δ/Δ mice (setting [1]), the “kidney size (2K/BW %)” value is “significantly smaller than vehicle treated controls”, the “proportion of AURKA high cells” value is on record as “also reduced” and the “proportion of collecting duct cells with phosphorylated AKT (AKT pT308 high)” value is “reduction in the proportion of collecting duct cells with phosphorylated AKT”. Also, in the assay with Pkd1^Δ/Δ mice (setting [2]), the cyst number result is listed as “reducing”, the cyst size result is “reducing”, the cystic index result is given as “reducing” and the “kidney to body weight ratio” value is “reducing”. Besides, the “severity of PKD” value in the assay with Pkd1^Δ/Δ mice (daily P4 to P10, sacrifice at P11, up to 75 mg/kg) is recorded as “reduce the severity of PKD in a dose dependent manner”.
